Twelve compounds from patent US20050070570A1, “Novel potassium channels modulators” (4SC AG, priority 2003, published 2005) can be followed below.

Chain of BK currents (CHO cells permanently transfected with cloned α-hSlo and β-bSlo) (Q12791 whole entry): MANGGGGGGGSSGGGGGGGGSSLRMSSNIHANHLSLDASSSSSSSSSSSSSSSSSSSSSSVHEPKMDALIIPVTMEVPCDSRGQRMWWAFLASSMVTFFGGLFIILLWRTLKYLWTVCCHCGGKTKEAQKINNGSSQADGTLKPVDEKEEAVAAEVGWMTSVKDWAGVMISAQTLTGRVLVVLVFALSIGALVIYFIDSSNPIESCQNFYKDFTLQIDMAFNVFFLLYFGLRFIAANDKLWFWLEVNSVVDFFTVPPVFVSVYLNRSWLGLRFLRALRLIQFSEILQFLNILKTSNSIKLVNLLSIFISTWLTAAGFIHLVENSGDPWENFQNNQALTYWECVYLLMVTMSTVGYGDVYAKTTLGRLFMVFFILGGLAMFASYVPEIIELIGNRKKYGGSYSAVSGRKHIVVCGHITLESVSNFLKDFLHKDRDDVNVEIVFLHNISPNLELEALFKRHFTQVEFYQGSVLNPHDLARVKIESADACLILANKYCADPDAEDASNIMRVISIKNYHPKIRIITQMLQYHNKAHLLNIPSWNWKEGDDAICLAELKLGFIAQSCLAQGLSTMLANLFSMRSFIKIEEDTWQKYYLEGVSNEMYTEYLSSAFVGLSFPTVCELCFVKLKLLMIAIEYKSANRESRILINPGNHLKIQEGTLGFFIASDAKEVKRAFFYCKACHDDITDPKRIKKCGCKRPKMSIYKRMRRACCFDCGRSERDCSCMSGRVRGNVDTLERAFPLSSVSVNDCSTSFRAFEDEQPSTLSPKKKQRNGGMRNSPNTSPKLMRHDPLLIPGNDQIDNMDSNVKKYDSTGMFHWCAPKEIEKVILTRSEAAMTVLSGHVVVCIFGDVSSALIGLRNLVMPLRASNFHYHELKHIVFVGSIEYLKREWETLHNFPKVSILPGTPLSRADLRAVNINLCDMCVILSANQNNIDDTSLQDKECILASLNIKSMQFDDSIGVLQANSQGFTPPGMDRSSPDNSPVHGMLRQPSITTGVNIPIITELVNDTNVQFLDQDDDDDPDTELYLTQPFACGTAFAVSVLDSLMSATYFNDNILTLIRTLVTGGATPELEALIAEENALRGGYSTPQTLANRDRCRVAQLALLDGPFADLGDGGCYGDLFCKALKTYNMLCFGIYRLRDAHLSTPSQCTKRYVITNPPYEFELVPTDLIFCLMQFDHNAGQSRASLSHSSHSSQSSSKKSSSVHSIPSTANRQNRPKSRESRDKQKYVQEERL
Chain of BK currents (CHO cells permanently transfected with cloned α-hSlo and β-bSlo) (Q28067 whole entry partner): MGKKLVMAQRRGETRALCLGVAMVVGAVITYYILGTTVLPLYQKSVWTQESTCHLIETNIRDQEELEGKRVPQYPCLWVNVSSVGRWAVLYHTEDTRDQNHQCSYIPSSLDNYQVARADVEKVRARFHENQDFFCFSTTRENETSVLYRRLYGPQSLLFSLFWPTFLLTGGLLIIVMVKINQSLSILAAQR

The first test has as its target BK currents (CHO cells permanently transfected with cloned α-hSlo and β-bSlo) (Homo sapiens, UniProt Q12791). The test can be described thus: Electrophysiological studies: whole-cell patch-clamp of BK currents. The following applies: ratio of current increase after application of compound (20 μM) relative to the control current before compound application; steady-state. It counts as cell-based. On the procedure: Electrophysiological Studies:
CHO cells permanently transfected with cloned α-hSlo and β-bSlo were maintained as described above and used for electrophysiological characterisation. The whole-cell configuration of the patch-lamp technique was used to determine the effect of modulators on BK currents in these cells. The cell line expressing functional BK currents (Zhou et al., Pflügers Arch. 436, p. 725 (1998)) were plated onto glass cover slips with a density of 1-5×10^4 cells/cover slip, incubated (37° C., 5% CO2) and used for patch-lamp experiments within 24-48 h. Cells were bathed in mammalian ringer solutions containing (in mM): 160NaCl, 4.5KCl, 2CaCl2, 1MgCl2, 10HEPES, adjusted to pH 7.4, 290-310 mOsm. The internal pipette solution contained (in mM): 160KCl, 2CaCl2, 1MgCl2, 10 HEPES, EGTA was added to reach a free [Ca^2+]internal=1×10^−6M, adjusted to pH 7.2, 290-310 mOsm. Borosilicate pipettes with a resistance of 2-3 MΩ were filled with the internal solution and mounted on an appropriate holder. […]
After addition of the compounds to the bath solution their modulating effect was determined by the increase or decrease of specific BK currents after reaching steady-state relative to the BK current before application of drugs (see Table II).
A general note: Patch clamp records ionic current or voltage across a cell membrane.
Consider `COc1cc2c(c(OC)c1)C(c1cccc(OC(F)(F)F)c1)N(C(=O)c1ccc(OC(F)(F)F)cc1)CC2` (centres unmarked) [Compound 30, [6,8-Dimethoxy-1-(3-tifluoromethoxy-phenyl)-3,4-dihydro-1H-isoquinolin-2-yl](4-trifluoromethoxy-phenyl)-metanone], for which the Effect result was “+ (<1.2 = +)”.
The same measure, in the same setting: the same measure for `COc1cc2c(c(OC)c1)C(C)N(S(=O)(=O)c1cccc([N+](=O)[O-])c1)CC2` (centres unmarked) [Compound 36, 6,8-Dimethoxy-1-methyl-2-(3-nitro-benzenesulfonyl)-1,2,3,4-tetrahydro-isoquinoline]: “++ (>1.2 = ++)”.

The target of another test is BK channels (CHO cells permanently transfected with cloned hSlo, α-hSlo and β-bSlo) (Homo sapiens, UniProt Q12791). The test can be described thus: Em-Assay: fluorescence membrane potential assay with voltage sensitive dye DiBAC(4)3. It counts as cell-based. To be noted: ratio of the compound effect (50 μM) compared to the maximal effect of NS004 (25 or 50 μM). The source says: The large conductance, voltage-dependent and Ca^2+-activated potassium channel BK is a potassium selective ion channel and belongs to the subfamily of KCa channels. Four BK alpha-subunits form a functional channel that can be regulated by intracellular Ca^2+ concentration, membrane voltage, and other mechanisms like phosphorylation states or beta subunits. To test the biological activity of the compounds, we applied two different techniques, a fluorescence based assay using a voltage sensitive dye (Em-Assay) as well as exploiting electrophysiological methods.
Chain of BK channels (CHO cells permanently transfected with cloned hSlo, α-hSlo and β-bSlo) (Q12791 whole entry): as the sequence (Q12791 whole entry) above
Chain of BK channels (CHO cells permanently transfected with cloned hSlo, α-hSlo and β-bSlo) (Q28067 whole entry partner): as the sequence (Q28067 whole entry partner) above
CHO cells permanently transfected with cloned hSlo (α-hSlo and β-bSlo), yielding typical BK potassium currents (Zhou et al., Pflügers Arch., 436: 725-734 (1998), were used for the evaluation of compound activity. Activation or inhibition of BK channels in these cells leads to a change of the electrochemical gradient causing a hyperpolarized or depolarised membrane potential, respectively.
To determine changes in the membrane potential of the cells we used the voltage sensitive dye DiBaC(4)3 (Molecular Probes) in a kinetic assay system using a fluorescent plate reader (Manning and Sontheimer, J. Neurosci. Meth., 91: 73-81 (1999). The anionic bis-oxonol DiBAC(4)3 is a voltage sensitive dye which partitions from the extracellular environment into the cell where it reversibly binds to intracellular proteins, a kinetic process depending on the membrane potential of the cell. At depolarised potentials (i.e. at a reduced K^+ efflux due to blocked K^+ channels) the dye accumulates in the cell leading to an increased fluorescence intensity, due to its increased fluorescence if bound to cellular proteins. At hyperpolarized potentials (i.e. at an increased K^+ efflux due to the opening of K^+ channels), the dye partitions out of the cell causing a decreased fluorescence intensity.
hslo transfected CHO cells where maintained in DMEM supplemented with 10% FCS, 250 μg/ml Geneticin, 100 μg/m Hygromycin, 1×HT-Supplement, and 1×Non-essential Amino Acids and cultured in a humidified CO2 incubator. After trypsination, cells where plated with a density of 5×10^4 cells per well on a clear 96-well plate and incubated for 24 h. Cells where washed once with PBS, once with PBS containing 20 mM HEPES (adjusted to pH 7.4 with NaOH) and 2 μM DiBAC(4)3 (DPBS-DiBAC solution). 180 μl of the dPBS-DiBAC solution was then added to the cells and the plate incubated for 30-60 min at 37° C. During this time the dye could partition into the cells and reach a certain steady-state distribution, depending on the resting membrane potential. Test and reference compounds were stored as DMSO stock solutions and diluted in dPBS-DiBAC solution to the desired concentration.
Fluorescence intensity (Ex.: 485 nm/Em.: 520 nm) of each well was detected in the plate reader (Fluostar, BMG) every 60 seconds. After recording the baseline fluorescence for 7 minutes, 20 μl test- and reference compounds were added and the fluorescence intensity was detected for additional 15 minutes. Background was subtracted, data values were normalized and expressed as a change in fluorescence intensity against time. The change in fluorescence intensity caused by the test compounds was evaluated, compared to the effect of the reference compound NS004, and the ratio was determined (see Table I).
As to `COc1cc2c(c(OC)c1)C(c1cccc(OC(F)(F)F)c1)N(C(C)=O)CC2` (centres unmarked) [Compound 29, 1-[6,8-Dimethoxy-1-(3-trifluoromethoxy-phenyl)-3,4-dihydro-1H-isoquinolin-2-yl]-ethanone], the Em effect entry was “++ (>1-1.5=++)”.
Turning to `COc1cc2c(c(OC)c1)C(c1cccc(OC(F)(F)F)c1)N(C(=O)c1ccc(OC(F)(F)F)cc1)CC2` (centres unmarked) [Compound 30, [6,8-Dimethoxy-1-(3-tifluoromethoxy-phenyl)-3,4-dihydro-1H-isoquinolin-2-yl](4-trifluoromethoxy-phenyl)-metanone], the Em effect result is recorded as “+ (0-1=+)”.
On the same count and under the same terms, under `COc1ccc(C(=O)N2CCc3cc(OC)cc(OC)c3C2c2cccc(OC(F)(F)F)c2)cc1` (centres unmarked) [Compound 31, [6,8-Dimethoxy-1-(3-trifluoromethoxy-phenyl)-3,4-dihydro-1H-isoquinolin-2-yl]-(4-methoxy-phenyl)-methanone] stands “+ (0-1=+)”.
The same measure, in the same setting: under `COc1cc2c(c(OC)c1)C(c1cccc(OC(F)(F)F)c1)N(C(=O)c1ccc(NC(C)=O)cc1)CC2` (centres unmarked) [Compound 32, N-{4-[6,8-Dimethoxy-1-(3-trifluoro-methoxy-phenyl)-3,4-dihydro-1H-isoquinoline-2-carbonyl]-phenyl}-acetamide] stands “+ (0-1=+)”.
For `COc1cc2c(c(OC)c1)C(c1cccc(OC(F)(F)F)c1)N(S(=O)(=O)c1cc(C(F)(F)F)ccc1[N+](=O)[O-])CC2` (centres unmarked) [Compound 34, 6,8-Dimethoxy-2-(2-nitro-5-trifluoromethyl-benzenesulfonyl)-1-(3-trifluoromethoxy-phenyl)-1,2,3,4-tetrahydro-isoquinoline], the Em effect result is “+ (0-1=+)”.
Consider `COc1cc2c(c(OC)c1)C(c1cccc(OC(F)(F)F)c1)N(S(=O)(=O)c1cc(C(F)(F)F)cc(C(F)(F)F)c1)CC2` (centres unmarked) [Compound 35, 2-(3,5-Bis-trifluoromethyl-benzenesulfonyl)-6,8-dimethoxy-1-(3-trifluoromethoxy-phenyl)-1,2,3,4-tetrahydroisoquinoline], for which the Em effect result was “+ (0-1=+)”.
Still for that read-out and setting: the same measure for `COc1cc2c(c(OC)c1)C(C)N(S(=O)(=O)c1cccc([N+](=O)[O-])c1)CC2` (centres unmarked) [Compound 36, 6,8-Dimethoxy-1-methyl-2-(3-nitro-benzenesulfonyl)-1,2,3,4-tetrahydro-isoquinoline]: “++ (>1-1.5=++)”; for `COc1cc2c(c(OC)c1)C(C)N(S(=O)(=O)c1cc(C(F)(F)F)cc(C(F)(F)F)c1)CC2` (centres unmarked) [Compound 37, 2-(3,5-Bis-trifluoromethyl-benzenesulfonyl)-6,8-dimethoxy-1-methyl-1,2,3,4-tetra-hydroisoquinoline]: “+ (0-1=+)”; for `COc1cc2c(c(OC)c1)C(C)N(C(=O)c1cccc([N+](=O)[O-])c1)CC2` (centres unmarked) [Compound 38, (6,8-Dimethoxy-1-methyl-3,4-dihydro-1H-isoquinolin-2-yl)-(3-nitro-phenyl)-methanone]: “+ (0-1=+)”.
On to `COc1cc2c(c(OC)c1)C(C)N(C(=O)c1ccc(OC(F)(F)F)cc1)CC2` (centres unmarked) [Compound 39, (6,8-Dimethoxy-1-methyl-3,4-dihydro-1H-isoquinolin-2-yl)-(4-trifluoro-methoxy-phenyl)-methanone], for which the Em effect entry is “+ (0-1=+)”.
Consider `COc1ccc(C(=O)N2CCc3cc(OC)cc(OC)c3C2C)cc1` (centres unmarked) [Compound 40, (6,8-Dimethoxy-1-methyl-3,4-dihydro-1H-isoquinolin-2-yl)-(4-methoxy-phenyl)-methanone], for which the Em effect result is given as “+ (0-1=+)”.
Still for that read-out and setting: under “(3,5-Bis-trifluoromethoxy-phenyl)-[6,8-dimethoxy-1-(3-trifluoromethoxy-phenyl)-3,4-dihydro-1H-iso-quinolin-2-yl]-methanone [Compound 33]” stands “+ (0-1=+)”.
